Activity calls are given as the source filed them.
What was measured:
Format in all cases: functional, organism-based
[1] = tested on: Mycobacterium intracellulare; assay: Antimicrobial activity against Mycobacterium intracellular at 20 ug/mL
Staphylococcus aureus [2] = assay: Antimicrobial activity against methicillin-resistant Staphylococcus aureus at 20 ug/mL
Cryptococcus neoformans = assay: Antimicrobial activity against Cryptococcus neoformans at 20 ug/mL
Aspergillus fumigatus = assay: Antimicrobial activity against Aspergillus fumigatus at 20 ug/mL
Candida albicans = assay: Antimicrobial activity against Candida albicans at 20 ug/mL
Pseudomonas aeruginosa = assay: Antimicrobial activity against Pseudomonas aeruginosa at 20 ug/mL
Staphylococcus aureus [3] = assay: Antimicrobial activity against Staphylococcus aureus at 20 ug/mL

Measured: Activity

COc1cc(C(=O)O[C@H]2C[C@]3(C(=O)O)C[C@@H]4C[C@]45C(=CCC4[C@@]6(C)CC[C@H](O[C@@H]7O[C@H](CO)[C@@H](O)[C@H](O)[C@H]7O[C@@H]7OC[C@@H](O[C@@H]8OC[C@@H](O)[C@H](O)[C@H]8O)[C@H](O)[C@H]7O)C(C)(C)[C@@H]6CC[C@]45C)[C@@H]3CC2(C)C)cc(OC)c1OC (some centres not stated)
inactive: all assays above
